We go through one molecule from patent US8658668B2, “PI3 kinase/mTOR dual inhibitor” (Eli Lilly and Company, priority 2011, dated 2014).

What all share (assay type): cell-based
In experiment [1] the test system is AKT1(pS473). As to the kind of experiment: AlphaScreen SureFire p-AKT (Ser473) in U87MG cells. Particulars: Homo sapiens, U-87 MG, 1 h, n = 4, read-out: AKT1(pS473) Absolute IC50. The method, then:
This homogeneous assay format uses immuno-sandwich capture of the phosphorylated analyte and then detection with antibody-coated Alphascreen beads to generate an amplified signal.
Maintain U87MG cells in U87MG growth medium consisting of DMEM (GIBCO 11965-092) supplemented with 10% fetal bovine serum (FBS, GIBCO, 10091-141), 1% nonessential amino acids (GIBCO, 11140-050) and 1% sodium pyruvate (GIBCO, 11360-070). Harvest cells using standard cell culture procedures and then count using Vi-Cell. Plate 100 μL of U87MG cells in growth medium (50,000 cells/well) into Costar #3596 96 well plates and incubate overnight at 37° C., 5% CO2.
Incubate for one h at 37° C., then remove the medium and add 50 μL of 1× SureFire Lysis Buffer (TGR Biosciences SureFire® Kit component) to each well and incubate at room temperature for 10 min with gentle shaking Transfer 6 μL lysate and 10 μL reaction mixture (60 parts reaction buffer/10 parts activation buffer/1 part each of donor and acceptor beads, Perkin Elmer, 6760617R) to a 384 well proxiplate (Perkin Elmer, 6006280) for the p-p70S6 kinase (Thr389) and p-AKT(Ser473) assays. Seal the plate and incubate at RT for 4 h. […] Read the plates on a Perkin Elmer EnVision equipped with a TurboModule using standard AlphaScreen® settings (Ex680 nm and Em520-620 nm). […]
On the technique in general: Alpha assays give light when donor and acceptor beads are brought close together.

Experiment [2] concerns LXFL 1072 human tumor xenograft cells. Briefly: Oncotest tumor clonogenic assay, LXFL 1072. Particulars: colony formation, NSCLC LXFL 1072, large cell lung carcinoma, pd, read-out: Absolute IC50.
Experiment [3] relates to GXF 97 human tumor xenograft cells. Briefly: Oncotest tumor clonogenic assay, GXF 97. Particulars: colony formation, Gastric GXF 97, adeno carcinoma, wd, read-out: Absolute IC50.
Experiment [4] concerns HT-1080. As to the kind of experiment: Cell proliferation assay (CellTiter-Glo), HT-1080. Particulars: Homo sapiens, HT-1080, 72 h. The method, then: Plate cells in a 96-well plate at 2000 cells/well in 100 μL of cell specific medium (for U87MG use DMEM, 10% FBS, 25 mM 4-(2-hydroxyethyl)-1-piperazineethanesulfonic acid (HEPES), 1.0 mM sodium pyruvate, and 0.1 mM Non Essential Amino Acids (ATCC Cat.#30-2002); for HT1080 use Eagle's MEM, 10% FBS (ATCC Cat.#30-2003); for H1975, A2780, SJSA-1 and 786-O use RPMI 1640, 10% FBS (ATCC Cat.#30-2001); for A204 use McCoy's 5A, 10% FBS (ATCC Cat.#30-2007) except in column 1 use medium only as the blank control. Incubate the plates overnight at 37° C. and 5% CO2. On the next day, prepare compound stocks at 1 mM in DMSO and serially dilute in DMSO in a 96-well round bottom polypropylene plate. Assay compounds at 10 concentrations in duplicate, 4 compounds per plate.
Transfer 4 μL of the DMSO serial dilutions to a 96 well plate and add 196 μL of culture medium to create a 10× stock for dosing. Gently transfer 11 μL of each dosing stock to the corresponding well of the cell plate resulting in a 0.2% DMSO concentration and a 111 μL final volume. […]
Prepared the CellTiter-Glo reagent (Promega, Cat: G7571) and add 100 µL to each well after the incubation is complete, homogenize the cells by mixing on an orbital shaker for 2 min and then incubate at RT for 10 min to allow the luminescent signal to stabilize. Record the luminescent raw data with a Wallac Victor V plate reader. […]

Experiment [5] concerns SXF 1301 human tumor xenograft cells. As to the kind of experiment: Oncotest tumor clonogenic assay, SXF 1301. Conditions: colony formation, Sarcoma SXF 1301, malignant rhabdomyosarcoma, ud, read-out: Absolute IC50.
Experiment [6] deals with BXF 1218 human tumor xenograft cells. As to the kind of experiment: Oncotest tumor clonogenic assay, BXF 1218. Particulars: colony formation, Bladder BXF 1218, transitional cell carcinoma, read-out: Absolute IC50.
The test system of experiment [7] is PAXF 736 human tumor xenograft cells. As to the kind of experiment: Oncotest tumor clonogenic assay, PAXF 736. Particulars: PAXF736, colony formation, Pancreas PAXF 736, adeno carcinoma, pd, read-out: Absolute IC50.
The subject of experiment [8] is MEXF 462 human tumor xenograft cells. Briefly: Oncotest tumor clonogenic assay, MEXF 462. Conditions: colony formation, Melanoma MEXF 462, amelanotic melanoma, md, read-out: Absolute IC50.
In experiment [9] the test system is LXFA 983 human tumor xenograft cells. Briefly: Oncotest tumor clonogenic assay, LXFA 983. Particulars: colony formation, NSCLC LXFA 983, adeno carcinoma, pd, read-out: Absolute IC50.
Experiment [10] concerns CXF 1729 human tumor xenograft cells. Briefly: Oncotest tumor clonogenic assay, CXF 1729. Particulars: colony formation, Colon CXF 1729, adeno carcinoma, wd, read-out: Absolute IC50.

In the case of `CO[C@@H](C)Cn1c(=O)n(C)c2cnc3ccc(-c4cncc(C(C)(C)O)c4)cc3c21` [Example 1, 8-[5-(1-Hydroxy-1-methylethyl)pyridin-3-yl]-1-[(2S)-2-methoxypropyl]-3-methyl-1,3-dihydro-2H-imidazo[4,5-c]quinolin-2-one], the IC50 (usually the concentration that gives 50% inhibition) is 94.2 nM in [1]; 214 nM in experiment [2]; 101 nM in experiment [3]; 72 nM in experiment [4]; more than 200 nM in experiment [5]; 48 nM in experiment [6]. Besides, the concentration for half-maximal inhibition (IC50) in experiment [7] came to 174 nM; in experiment [8], 156 nM; in experiment [9], 103 nM; in experiment [10] it was 176 nM.
